Experimental data: PubChem BioAssay (NCI)
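In this assay, cells in 96-well plates receive the compound at five concentrations for 48 hours. Endpoints are linearly interpolated between the surrounding concentrations. TGI is the concentration that stops growth completely.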

How the values were obtained:
Experiment in all cases: NCI tumour cell line growth inhibition, 48 h
[1] = test system: XF 498 CNS
[2] = test system: SK-OV-3 ovarian
[3] = test system: DMS 114 small cell lung
[4] = test system: A549 NSCLC
[5] = test system: OVCAR-4 ovarian
[6] = test system: SF-295 CNS
[7] = test system: SK-MEL-2 melanoma
[8] = test system: 786-0 renal
[9] = test system: NCI-H460 lung
[10] = test system: RPMI-8226 leukemia
[11] = test system: DMS 273 small cell lung
[12] = test system: OVCAR-5 ovarian
[13] = test system: HCT-116 colon
[14] = test system: OVCAR-8 ovarian
[15] = test system: HCC-2998 colon
[16] = test system: HOP-62 NSCLC
[17] = test system: SW-620 colon
[18] = test system: HT29 colon
[19] = test system: KM20L2 colon
[20] = test system: SN12C renal
[21] = test system: RXF-631 renal
[22] = test system: NCI-H226 lung
[23] = test system: UO-31 renal
[24] = test system: CAKI-1 renal
[25] = test system: UACC-257 melanoma
[26] = test system: U251 CNS
[27] = test system: SF-268 CNS
[28] = test system: NCI-H522 lung
[29] = test system: RXF 393 renal
[30] = test system: IGROV1 ovarian
[31] = test system: OVCAR-3 ovarian
[32] = test system: KM12 colon
[33] = test system: SNB-75 CNS
[34] = test system: ACHN renal
[35] = test system: HCT-15 colon
[36] = test system: HOP-18 NSCLC
[37] = test system: SNB-19 CNS
[38] = test system: SR leukemia
[39] = test system: EKVX NSCLC
[40] = test system: TK-10 renal
[41] = test system: SF-539 CNS
[42] = test system: SNB-78 CNS
[43] = test system: SK-MEL-28 melanoma
[44] = test system: A498 renal
[45] = test system: K-562 leukemia
[46] = test system: MOLT-4 leukemia
[47] = test system: UACC-62 melanoma
[48] = test system: LXFL 529 NSCLC
[49] = test system: HL-60(TB) leukemia
[50] = test system: M14 melanoma
[51] = test system: M19-MEL melanoma
[52] = test system: MALME-3M melanoma
[53] = test system: SK-MEL-5 melanoma
[54] = test system: DLD-1 colon
[55] = test system: CCRF-CEM leukemia
[56] = test system: COLO 205 colon
[57] = test system: HOP-92 NSCLC
[58] = test system: NCI-H23 lung

`NNC(=O)C(=O)N/N=C1/CCCC1C(=O)CCC(=O)Nc1ccc(Cl)cc1` (stereo not drawn) was tested, and the TGI [1] was over 100 µM, the TGI [2] was over 100 µM and the TGI [3] was over 100 µM. For the same compound, the TGI [4] was over 100 µM, the TGI [5] was over 100 µM and the TGI [6] was over 100 µM. The TGI [7] was over 100 µM, the TGI [8] was over 100 µM and the TGI [9] was over 100 µM. The TGI [10] was over 100 µM, the TGI [11] was over 100 µM and the TGI [12] was over 100 µM. It also gave a TGI [13] of over 100 µM, a TGI [14] of over 100 µM and a TGI [15] of over 100 µM. The TGI [16] was over 100 µM, the TGI [17] was over 100 µM and the TGI [18] was over 100 µM. It also gave a TGI [19] of over 100 µM, a TGI [20] of over 100 µM and a TGI [21] of over 100 µM. It also gave a TGI [22] of over 100 µM, a TGI [23] of over 100 µM and a TGI [24] of over 100 µM. The TGI [25] was over 100 µM, the TGI [26] was over 100 µM and the TGI [27] was over 100 µM. The TGI [28] was over 100 µM, the TGI [29] was over 100 µM and the TGI [30] was over 100 µM. For the same compound, the TGI [31] was over 100 µM, the TGI [32] was over 100 µM and the TGI [33] was over 100 µM. The TGI [34] was over 100 µM, the TGI [35] was over 100 µM and the TGI [36] was over 100 µM. The TGI [37] was over 100 µM, the TGI [38] was over 100 µM and the TGI [39] was over 100 µM. It also gave a TGI [40] of over 100 µM, a TGI [41] of over 100 µM and a TGI [42] of over 100 µM. The TGI [43] was over 100 µM, the TGI [44] was over 100 µM and the TGI [45] was over 100 µM. The TGI [46] was over 100 µM, the TGI [47] was 24 µM and the TGI [48] was over 100 µM. The TGI [49] was over 100 µM, the TGI [50] was over 100 µM and the TGI [51] was over 100 µM. For the same compound, the TGI [52] was over 100 µM, the TGI [53] was over 100 µM and the TGI [54] was over 100 µM. It also gave a TGI [55] of over 100 µM, a TGI [56] of over 100 µM and a TGI [57] of over 100 µM. The TGI [58] was over 100 µM.
